Active and inactive are the calls of the source. Rule as the data show it: actives have a measured IC50 and inactives only a lower limit.
Tests used:
Type in all cases: functional
[1] = target: T1, Sentrin-specific protease 7 (Homo sapiens, UniProt Q9BQF6);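 also: Luminescence-based dose-response confirmation of ultra-high-throughput screening hits, measuring inhibition of SENP7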
T1 sequence (Q9BQF6 whole entry): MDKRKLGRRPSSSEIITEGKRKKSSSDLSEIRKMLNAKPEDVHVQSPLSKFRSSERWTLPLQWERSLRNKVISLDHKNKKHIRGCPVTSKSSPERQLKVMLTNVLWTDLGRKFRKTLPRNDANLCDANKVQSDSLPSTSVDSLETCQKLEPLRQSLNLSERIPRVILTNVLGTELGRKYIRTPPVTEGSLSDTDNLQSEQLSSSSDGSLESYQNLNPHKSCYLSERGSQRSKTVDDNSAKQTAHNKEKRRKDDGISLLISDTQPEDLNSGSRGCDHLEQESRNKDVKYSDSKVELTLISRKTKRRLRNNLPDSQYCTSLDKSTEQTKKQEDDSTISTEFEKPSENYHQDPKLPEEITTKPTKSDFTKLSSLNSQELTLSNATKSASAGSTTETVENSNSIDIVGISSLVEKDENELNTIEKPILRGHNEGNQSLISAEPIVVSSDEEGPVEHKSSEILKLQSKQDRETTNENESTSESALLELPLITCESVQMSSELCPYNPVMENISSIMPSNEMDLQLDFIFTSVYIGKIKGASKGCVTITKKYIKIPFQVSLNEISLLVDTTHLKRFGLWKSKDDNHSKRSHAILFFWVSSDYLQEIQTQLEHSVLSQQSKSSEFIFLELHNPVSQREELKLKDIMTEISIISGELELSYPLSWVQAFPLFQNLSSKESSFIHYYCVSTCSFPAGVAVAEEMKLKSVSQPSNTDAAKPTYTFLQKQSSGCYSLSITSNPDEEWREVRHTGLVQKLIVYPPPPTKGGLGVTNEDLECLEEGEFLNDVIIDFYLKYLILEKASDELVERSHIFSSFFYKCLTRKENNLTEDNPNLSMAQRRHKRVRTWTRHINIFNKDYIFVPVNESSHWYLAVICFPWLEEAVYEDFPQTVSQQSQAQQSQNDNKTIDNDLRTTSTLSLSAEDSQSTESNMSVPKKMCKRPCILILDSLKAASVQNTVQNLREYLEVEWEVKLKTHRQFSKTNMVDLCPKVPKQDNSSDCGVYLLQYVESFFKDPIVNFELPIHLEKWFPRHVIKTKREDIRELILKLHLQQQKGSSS

[2] = target: T2, Sentrin-specific protease 8 (Homo sapiens, UniProt Q96LD8);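 also: luminescence read-out of SENP8 inhibition, dose-response confirmation following an ultra-high-throughput screen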
T2 sequence (Q96LD8 whole entry): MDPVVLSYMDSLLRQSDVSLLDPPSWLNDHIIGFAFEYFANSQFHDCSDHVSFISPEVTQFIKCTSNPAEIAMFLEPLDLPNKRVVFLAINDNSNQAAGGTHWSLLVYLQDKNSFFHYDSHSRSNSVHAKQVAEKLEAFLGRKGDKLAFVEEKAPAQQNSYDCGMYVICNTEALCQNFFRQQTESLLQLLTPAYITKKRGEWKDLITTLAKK

[3] = target: T3, Sentrin-specific protease 6 (Homo sapiens, UniProt Q9GZR1);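 also: Luminescence-based dose-response confirmatory assay of SENP6 inhibition, following up an ultra-high-throughput screen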
T3 sequence (Q9GZR1 whole entry): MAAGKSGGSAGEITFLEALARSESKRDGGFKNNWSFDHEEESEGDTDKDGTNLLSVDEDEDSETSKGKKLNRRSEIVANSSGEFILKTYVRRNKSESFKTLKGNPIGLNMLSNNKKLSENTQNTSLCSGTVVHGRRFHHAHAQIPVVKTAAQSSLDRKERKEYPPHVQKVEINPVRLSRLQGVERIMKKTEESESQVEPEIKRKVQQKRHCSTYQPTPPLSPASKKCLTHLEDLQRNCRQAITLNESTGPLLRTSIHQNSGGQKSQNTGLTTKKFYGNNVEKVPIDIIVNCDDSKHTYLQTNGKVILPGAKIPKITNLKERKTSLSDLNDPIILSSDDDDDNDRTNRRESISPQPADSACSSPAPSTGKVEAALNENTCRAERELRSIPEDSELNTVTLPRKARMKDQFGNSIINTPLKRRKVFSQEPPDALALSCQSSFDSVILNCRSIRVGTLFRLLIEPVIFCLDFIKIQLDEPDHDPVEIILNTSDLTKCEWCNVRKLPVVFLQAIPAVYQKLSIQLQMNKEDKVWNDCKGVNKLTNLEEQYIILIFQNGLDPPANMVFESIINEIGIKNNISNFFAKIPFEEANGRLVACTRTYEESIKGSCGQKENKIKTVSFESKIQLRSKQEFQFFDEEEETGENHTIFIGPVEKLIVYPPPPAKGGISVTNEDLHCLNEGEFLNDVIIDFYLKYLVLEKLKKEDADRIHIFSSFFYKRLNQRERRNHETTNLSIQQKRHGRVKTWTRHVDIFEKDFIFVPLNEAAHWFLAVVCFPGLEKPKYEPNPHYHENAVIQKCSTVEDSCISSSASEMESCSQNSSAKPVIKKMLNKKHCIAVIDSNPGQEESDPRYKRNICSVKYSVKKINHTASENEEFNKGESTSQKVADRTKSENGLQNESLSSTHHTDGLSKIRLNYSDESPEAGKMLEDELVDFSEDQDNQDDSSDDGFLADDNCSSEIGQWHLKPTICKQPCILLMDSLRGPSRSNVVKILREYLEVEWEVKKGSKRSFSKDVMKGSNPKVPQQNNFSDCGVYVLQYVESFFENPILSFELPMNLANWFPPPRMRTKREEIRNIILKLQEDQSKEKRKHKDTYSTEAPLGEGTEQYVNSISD

[4] = target: T4, Caspase-3 (Homo sapiens, UniProt P42574);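 also: Dose-response selectivity test against caspase-3 for candidate inhibitors of sentrin-specific proteases (SENPs)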
T4 sequence (P42574 whole entry): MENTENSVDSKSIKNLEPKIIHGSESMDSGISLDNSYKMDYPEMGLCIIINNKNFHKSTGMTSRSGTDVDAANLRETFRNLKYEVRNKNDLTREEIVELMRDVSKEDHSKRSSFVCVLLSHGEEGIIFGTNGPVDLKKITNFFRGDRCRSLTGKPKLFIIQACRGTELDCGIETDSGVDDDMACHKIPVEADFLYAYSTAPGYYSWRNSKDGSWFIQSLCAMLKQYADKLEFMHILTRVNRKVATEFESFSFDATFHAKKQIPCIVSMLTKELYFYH

| SMILES | IC50 [1] | IC50 [2] | IC50 [3] | IC50 [4] |
| --- | --- | --- | --- | --- |
| O=[N+]([O-])c1ccc(O)c(C2=NNC(c3ccccc3F)C2)c1 (stereo not drawn) | 41.6 µM (active) | 54.5 µM (active) | 43.5 µM (active) | 68.6 µM (active) |
| Cc1oc2c(c1C(=O)N1CCC(C)CC1)C(=O)c1ccccc1C2=O | 40.6 µM (active) | 23.6 µM (active) | 13.7 µM (active) | 10.2 µM (active) |

— ChEMBL document CHEMBL1201862, “PubChem BioAssay data set” (2004)
